Assay results as given in PMC11850817 (Scientific Reports, 2025).

Legend:
[1] = biological target: KDR (VEGFR2) (Homo sapiens, UniProt P35968); experiment: Radiometric kinase assay; format: biochemical; settings: read-out: Kinase inhibition (%) KDR (VEGFR2)
[2] = tested on: AsPC-1 cells; experiment: Cell cycle test, RNase/PI flow cytometry; format: cell-based, human; settings: AsPC-1, 3, 10, 30, 50 µM, 48 h
[3] = tested on: EBC-1; experiment: MTT antiproliferative assay, EBC-1; format: cell-based, human; settings: Homo sapiens, EBC-1, 72 h, read-out: IC50 EBC-1
[4] = biological target: CDK6/cyclinD3 (Homo sapiens, UniProt Q00534); experiment: Radiometric kinase assay; format: biochemical; settings: read-out: Kinase inhibition (%) CDK6/cyclinD3
[5] = biological target: MAPK1 (ERK2) (Homo sapiens, UniProt P28482); experiment: Radiometric kinase assay; format: biochemical; settings: read-out: Kinase inhibition (%) MAPK1 (ERK2)
MAPK1 (ERK2), sequence (P28482 whole entry): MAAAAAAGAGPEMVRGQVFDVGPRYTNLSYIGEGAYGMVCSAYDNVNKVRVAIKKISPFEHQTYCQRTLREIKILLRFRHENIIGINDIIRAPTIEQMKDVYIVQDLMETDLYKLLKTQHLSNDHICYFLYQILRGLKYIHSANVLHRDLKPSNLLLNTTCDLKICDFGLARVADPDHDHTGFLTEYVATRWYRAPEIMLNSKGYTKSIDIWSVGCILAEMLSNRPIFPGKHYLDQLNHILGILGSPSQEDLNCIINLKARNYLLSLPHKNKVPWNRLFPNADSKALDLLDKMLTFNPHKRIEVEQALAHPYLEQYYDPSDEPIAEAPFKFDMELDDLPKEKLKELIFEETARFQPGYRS

[6] = biological target: FLT4 (VEGFR3) (Homo sapiens, UniProt P35916); experiment: Radiometric kinase assay; format: biochemical; settings: read-out: Kinase inhibition (%) FLT4 (VEGFR3)
[7] = biological target: NTRK2 (TrkB) (Homo sapiens, UniProt Q16620); experiment: Radiometric kinase assay; format: biochemical; settings: read-out: Kinase inhibition (%) NTRK2 (TrkB)
[8] = biological target: KIT (c-Kit) (Homo sapiens, UniProt P10721); experiment: Radiometric kinase assay; format: biochemical; settings: read-out: Kinase inhibition (%) KIT (c-Kit)
[9] = biological target: MET (Homo sapiens, UniProt P08581); experiment: Radiometric kinase assay; format: biochemical; settings: read-out: Kinase inhibition (%) MET
MET, sequence (P08581 25-1390): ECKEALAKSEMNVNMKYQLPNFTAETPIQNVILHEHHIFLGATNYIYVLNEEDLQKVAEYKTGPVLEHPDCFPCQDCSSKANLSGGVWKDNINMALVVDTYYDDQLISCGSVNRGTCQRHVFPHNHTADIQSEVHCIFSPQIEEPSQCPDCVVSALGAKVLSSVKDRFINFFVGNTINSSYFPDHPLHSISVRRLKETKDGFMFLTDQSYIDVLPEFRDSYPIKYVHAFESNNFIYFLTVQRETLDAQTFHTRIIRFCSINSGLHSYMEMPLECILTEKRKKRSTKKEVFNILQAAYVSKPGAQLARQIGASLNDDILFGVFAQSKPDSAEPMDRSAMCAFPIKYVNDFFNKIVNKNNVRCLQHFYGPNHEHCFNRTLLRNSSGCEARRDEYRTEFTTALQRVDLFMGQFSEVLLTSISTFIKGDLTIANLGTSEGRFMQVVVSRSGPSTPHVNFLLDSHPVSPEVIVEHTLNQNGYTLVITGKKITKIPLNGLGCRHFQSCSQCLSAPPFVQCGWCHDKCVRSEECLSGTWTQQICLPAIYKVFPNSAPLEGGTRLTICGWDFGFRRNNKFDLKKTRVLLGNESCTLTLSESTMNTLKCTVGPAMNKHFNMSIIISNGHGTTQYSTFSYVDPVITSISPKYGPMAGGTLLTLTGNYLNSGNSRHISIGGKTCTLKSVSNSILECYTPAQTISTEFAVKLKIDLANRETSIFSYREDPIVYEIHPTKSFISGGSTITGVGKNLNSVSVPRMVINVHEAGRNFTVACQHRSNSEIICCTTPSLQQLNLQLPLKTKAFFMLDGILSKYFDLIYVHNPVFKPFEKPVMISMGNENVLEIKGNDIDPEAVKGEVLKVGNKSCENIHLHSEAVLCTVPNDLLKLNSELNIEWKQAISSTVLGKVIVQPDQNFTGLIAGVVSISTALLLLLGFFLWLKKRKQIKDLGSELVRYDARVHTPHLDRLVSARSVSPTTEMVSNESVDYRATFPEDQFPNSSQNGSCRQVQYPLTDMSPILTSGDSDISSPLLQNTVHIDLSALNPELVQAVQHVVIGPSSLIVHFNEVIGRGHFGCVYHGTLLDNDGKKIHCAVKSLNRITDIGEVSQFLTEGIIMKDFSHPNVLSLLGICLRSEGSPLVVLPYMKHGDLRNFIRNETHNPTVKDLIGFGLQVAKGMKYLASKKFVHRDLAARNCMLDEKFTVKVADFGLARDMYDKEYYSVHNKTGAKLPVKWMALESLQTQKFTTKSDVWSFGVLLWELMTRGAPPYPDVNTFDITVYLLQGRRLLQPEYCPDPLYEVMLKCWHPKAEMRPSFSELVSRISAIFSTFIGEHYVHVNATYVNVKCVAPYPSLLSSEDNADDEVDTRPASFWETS

[10] = biological target: IGF1R (Homo sapiens, UniProt P08069); experiment: Radiometric kinase assay; format: biochemical; settings: read-out: Kinase inhibition (%) IGF1R
[11] = biological target: ALK (Homo sapiens, UniProt Q9UM73); experiment: Radiometric kinase assay; format: biochemical; settings: read-out: Kinase inhibition (%) ALK
[12] = tested on: EBC-1, AsPC-1, Mia-Paca-2, HT-29, MCF-7 cancer cells; experiment: MTT antiproliferative assay, cancer cell lines summarised; format: cell-based, human; settings: Homo sapiens, read-out: IC50 range against tested cell lines
[13] = biological target: PDGFRB (PDGFRβ) (Homo sapiens, UniProt P09619); experiment: Radiometric kinase assay; format: biochemical; settings: read-out: Kinase inhibition (%) PDGFRB (PDGFRβ)
PDGFRB (PDGFRβ), sequence (P09619 33-1106): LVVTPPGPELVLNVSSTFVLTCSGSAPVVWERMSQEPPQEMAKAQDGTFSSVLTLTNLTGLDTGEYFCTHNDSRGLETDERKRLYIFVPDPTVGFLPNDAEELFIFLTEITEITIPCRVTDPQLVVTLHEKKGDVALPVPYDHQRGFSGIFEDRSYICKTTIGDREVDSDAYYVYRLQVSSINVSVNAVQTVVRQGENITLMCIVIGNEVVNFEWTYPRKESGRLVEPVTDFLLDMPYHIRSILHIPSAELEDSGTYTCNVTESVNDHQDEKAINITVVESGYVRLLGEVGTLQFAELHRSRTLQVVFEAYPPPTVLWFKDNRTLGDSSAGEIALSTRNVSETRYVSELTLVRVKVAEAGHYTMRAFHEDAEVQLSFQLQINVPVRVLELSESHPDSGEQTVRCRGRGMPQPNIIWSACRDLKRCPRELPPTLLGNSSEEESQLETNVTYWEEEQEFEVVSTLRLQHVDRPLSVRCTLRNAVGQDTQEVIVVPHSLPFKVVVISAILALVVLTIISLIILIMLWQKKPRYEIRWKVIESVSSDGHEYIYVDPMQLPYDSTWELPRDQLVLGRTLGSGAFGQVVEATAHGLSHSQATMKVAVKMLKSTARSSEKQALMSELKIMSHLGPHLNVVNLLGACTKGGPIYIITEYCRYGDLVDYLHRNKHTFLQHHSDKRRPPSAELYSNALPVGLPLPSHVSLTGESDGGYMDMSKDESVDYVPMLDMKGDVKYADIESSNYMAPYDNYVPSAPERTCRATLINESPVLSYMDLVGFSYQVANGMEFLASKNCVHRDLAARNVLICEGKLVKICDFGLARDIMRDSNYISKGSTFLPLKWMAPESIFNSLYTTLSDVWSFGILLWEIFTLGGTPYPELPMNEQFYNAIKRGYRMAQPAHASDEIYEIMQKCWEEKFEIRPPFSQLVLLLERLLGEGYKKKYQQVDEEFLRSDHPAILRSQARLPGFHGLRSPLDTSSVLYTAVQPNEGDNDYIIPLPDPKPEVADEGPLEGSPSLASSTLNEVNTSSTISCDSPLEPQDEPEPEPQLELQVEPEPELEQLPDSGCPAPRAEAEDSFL

[14] = biological target: WEE1 (Homo sapiens, UniProt P30291); experiment: Radiometric kinase assay; format: biochemical; settings: read-out: Kinase inhibition (%) WEE1
[15] = biological target: NTRK1 (TrkA) (Homo sapiens, UniProt P04629); experiment: Radiometric kinase assay; format: biochemical; settings: read-out: Kinase inhibition (%) NTRK1 (TrkA)
[16] = tested on: MCF-7; experiment: MTT antiproliferative assay, MCF-7; format: cell-based, human; settings: Homo sapiens, MCF7, 72 h, read-out: IC50 MCF-7
[17] = biological target: AURKA (Homo sapiens, UniProt O14965); experiment: Radiometric kinase assay; format: biochemical; settings: read-out: Kinase inhibition (%) AURKA
[18] = biological target: FGFR1 (Homo sapiens, UniProt P11362); experiment: Radiometric kinase assay; format: biochemical; settings: read-out: Kinase inhibition (%) FGFR1
FGFR1, sequence (P11362 22-822): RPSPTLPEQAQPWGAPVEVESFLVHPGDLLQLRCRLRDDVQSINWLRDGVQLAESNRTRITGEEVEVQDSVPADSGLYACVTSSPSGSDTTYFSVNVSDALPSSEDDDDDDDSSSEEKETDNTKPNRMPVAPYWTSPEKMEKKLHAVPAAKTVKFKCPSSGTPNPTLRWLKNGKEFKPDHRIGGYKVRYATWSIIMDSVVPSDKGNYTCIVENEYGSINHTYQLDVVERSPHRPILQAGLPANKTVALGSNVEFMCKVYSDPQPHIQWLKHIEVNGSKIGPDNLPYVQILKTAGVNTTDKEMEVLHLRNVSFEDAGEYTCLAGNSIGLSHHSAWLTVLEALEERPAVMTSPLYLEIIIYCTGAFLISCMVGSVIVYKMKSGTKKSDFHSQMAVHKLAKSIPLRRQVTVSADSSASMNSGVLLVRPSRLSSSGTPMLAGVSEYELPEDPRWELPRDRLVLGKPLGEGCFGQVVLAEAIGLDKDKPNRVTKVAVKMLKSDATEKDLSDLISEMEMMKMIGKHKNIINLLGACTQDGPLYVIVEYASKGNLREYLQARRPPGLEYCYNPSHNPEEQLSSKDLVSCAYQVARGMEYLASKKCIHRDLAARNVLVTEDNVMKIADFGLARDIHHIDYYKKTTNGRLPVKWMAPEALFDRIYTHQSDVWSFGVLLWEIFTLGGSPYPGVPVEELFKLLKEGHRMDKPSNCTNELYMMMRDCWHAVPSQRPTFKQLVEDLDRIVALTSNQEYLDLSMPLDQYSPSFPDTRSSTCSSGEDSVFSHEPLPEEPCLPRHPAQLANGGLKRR

[19] = biological target: PIK3CA (Homo sapiens, UniProt P42336); experiment: Radiometric kinase assay; format: biochemical; settings: read-out: Kinase inhibition (%) PIK3CA
[20] = biological target: NTRK3 (TrkC) (Homo sapiens, UniProt Q16288); experiment: Radiometric kinase assay; format: biochemical; settings: read-out: Kinase inhibition (%) NTRK3 (TrkC)
[21] = biological target: BRAF (Homo sapiens, UniProt P15056); experiment: Radiometric kinase assay; format: biochemical; settings: read-out: Kinase inhibition (%) BRAF
[22] = biological target: ABL1 (Homo sapiens, UniProt P00519); experiment: Radiometric kinase assay; format: biochemical; settings: read-out: Kinase inhibition (%) ABL1
[23] = tested on: Mia-Paca-2; experiment: MTT antiproliferative assay, Mia-Paca-2; format: cell-based, human; settings: Homo sapiens, MIA PaCa-2, 72 h, read-out: IC50 Mia-Paca-2
[24] = tested on: HT-29; experiment: MTT antiproliferative assay, HT-29; format: cell-based, human; settings: Homo sapiens, HT-29, 72 h, read-out: IC50 HT-29
[25] = biological target: T1, AXL (Homo sapiens, UniProt P30530); experiment: Radiometric kinase assay; format: biochemical; settings: read-out: Kinase inhibition (%) AXL
T1 sequence (P30530 26-894): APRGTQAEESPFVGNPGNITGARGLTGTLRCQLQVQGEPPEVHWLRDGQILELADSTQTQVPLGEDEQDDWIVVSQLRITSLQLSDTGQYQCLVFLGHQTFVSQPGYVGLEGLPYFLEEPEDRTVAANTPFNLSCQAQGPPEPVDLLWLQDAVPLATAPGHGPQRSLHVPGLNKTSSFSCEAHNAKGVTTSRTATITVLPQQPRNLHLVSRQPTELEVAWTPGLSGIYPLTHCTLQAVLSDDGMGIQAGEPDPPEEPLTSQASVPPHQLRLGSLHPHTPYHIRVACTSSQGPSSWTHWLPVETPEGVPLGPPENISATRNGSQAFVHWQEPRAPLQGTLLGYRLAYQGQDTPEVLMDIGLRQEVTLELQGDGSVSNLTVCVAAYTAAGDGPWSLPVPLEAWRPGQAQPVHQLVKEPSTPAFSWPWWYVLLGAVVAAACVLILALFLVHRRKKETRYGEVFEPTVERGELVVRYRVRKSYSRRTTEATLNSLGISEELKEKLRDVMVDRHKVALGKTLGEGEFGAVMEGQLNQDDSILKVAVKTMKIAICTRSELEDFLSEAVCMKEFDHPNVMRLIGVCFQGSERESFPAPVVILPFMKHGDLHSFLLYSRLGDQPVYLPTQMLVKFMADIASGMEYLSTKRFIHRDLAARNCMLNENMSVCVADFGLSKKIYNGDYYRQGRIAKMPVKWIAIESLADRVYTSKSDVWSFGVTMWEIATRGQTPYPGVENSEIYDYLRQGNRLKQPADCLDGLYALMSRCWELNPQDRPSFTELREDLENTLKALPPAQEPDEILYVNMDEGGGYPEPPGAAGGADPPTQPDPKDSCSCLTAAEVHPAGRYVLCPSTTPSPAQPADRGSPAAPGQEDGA

KDR (VEGFR2), sequence (P35968 20-1356): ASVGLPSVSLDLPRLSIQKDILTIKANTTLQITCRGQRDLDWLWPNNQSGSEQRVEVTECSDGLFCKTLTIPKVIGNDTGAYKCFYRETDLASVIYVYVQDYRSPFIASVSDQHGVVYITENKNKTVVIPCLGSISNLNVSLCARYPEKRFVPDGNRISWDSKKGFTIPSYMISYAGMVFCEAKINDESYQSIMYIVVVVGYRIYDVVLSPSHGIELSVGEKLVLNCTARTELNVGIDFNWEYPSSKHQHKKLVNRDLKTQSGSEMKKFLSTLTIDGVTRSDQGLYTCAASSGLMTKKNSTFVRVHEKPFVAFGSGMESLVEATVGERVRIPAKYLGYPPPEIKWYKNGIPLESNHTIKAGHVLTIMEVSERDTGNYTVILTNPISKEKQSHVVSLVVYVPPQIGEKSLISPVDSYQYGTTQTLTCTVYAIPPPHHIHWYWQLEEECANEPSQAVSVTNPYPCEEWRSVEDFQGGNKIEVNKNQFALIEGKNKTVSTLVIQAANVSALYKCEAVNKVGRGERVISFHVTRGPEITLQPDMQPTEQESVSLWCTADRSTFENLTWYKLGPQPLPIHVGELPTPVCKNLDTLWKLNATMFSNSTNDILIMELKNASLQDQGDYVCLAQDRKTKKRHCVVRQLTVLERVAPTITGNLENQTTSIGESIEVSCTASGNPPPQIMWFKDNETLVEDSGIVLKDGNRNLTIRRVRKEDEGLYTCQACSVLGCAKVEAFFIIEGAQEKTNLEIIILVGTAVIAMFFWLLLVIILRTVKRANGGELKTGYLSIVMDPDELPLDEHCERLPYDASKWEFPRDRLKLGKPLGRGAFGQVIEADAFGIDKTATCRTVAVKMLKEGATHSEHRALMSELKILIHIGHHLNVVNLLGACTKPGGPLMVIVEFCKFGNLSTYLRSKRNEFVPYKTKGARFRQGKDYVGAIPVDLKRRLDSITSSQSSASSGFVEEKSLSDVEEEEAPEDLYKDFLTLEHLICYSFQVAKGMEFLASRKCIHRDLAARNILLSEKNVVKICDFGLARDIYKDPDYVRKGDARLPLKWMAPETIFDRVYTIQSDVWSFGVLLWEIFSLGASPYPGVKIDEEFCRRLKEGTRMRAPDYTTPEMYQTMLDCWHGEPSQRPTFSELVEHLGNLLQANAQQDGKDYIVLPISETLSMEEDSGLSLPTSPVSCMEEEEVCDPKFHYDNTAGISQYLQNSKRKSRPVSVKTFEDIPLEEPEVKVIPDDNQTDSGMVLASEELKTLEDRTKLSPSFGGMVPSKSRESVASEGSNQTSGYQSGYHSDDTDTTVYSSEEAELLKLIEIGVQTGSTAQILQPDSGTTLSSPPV

`O=C1C=C(Nc2ccc(OCc3cn(Cc4ccc(Cl)c(Cl)c4)nn3)cc2)C(=O)c2ccccc21` [Compound 4e, 2-((4-((1-(3,4-Dichlorobenzyl)−1H-1,2,3-triazol-4-yl)methoxy)phenyl)amino) naphthalene-1,4-dione] was tested, and the inhibition at 10 µM [1] was -9%, the “Effect on cell cycle distribution (S and G2/M phases)” value [2] was “dose-dependently increased the number of cells in the S phase and simultaneously reduced the cells in G2/M phase” and the “Effect on sub-G1 and G0/G1 phases” value [2] was “increase in cells in sub-G1 phase, while reducing G0/G1 cells”. The IC50 [3] was 300 ± 100 nM, the inhibition at 10 µM [4] was 3% and the inhibition at 10 µM [5] was 6%. For the same compound, the inhibition at 10 µM [6] was 30%, the inhibition at 10 µM [7] was 6% and the inhibition at 10 µM [8] was -8%. The inhibition at 10 µM [9] was -14%, the inhibition at 10 µM [10] was -11% and the inhibition at 10 µM [11] was 15%. For the same compound, the IC50 [12] was 300 to 7100 nM, the inhibition at 10 µM [13] was 14% and the inhibition at 10 µM [14] was -4%. It also gave an inhibition at 10 µM [15] of 2%, an IC50 [16] of 7100 ± 4300 nM and an inhibition at 10 µM [17] of 5%. It also gave an inhibition at 10 µM [18] of -5%, an inhibition at 10 µM [19] of 3% and an inhibition at 10 µM [20] of 12%. For the same compound, the inhibition at 10 µM [21] was -7%, the inhibition at 10 µM [22] was 13% and the IC50 [23] was 800 ± 100 nM. The IC50 [24] was 600 ± 200 nM and the inhibition at 10 µM [25] was 5%.
